Results taken from patent publication EP4578939A1, “MYC[…]. BASED ON VARIOUS CARBON-NITROGEN METABOLIC […], METHOD FOR ISOLATING SAME, AND USE THEREOF” (Peng, Guanghao, priority 2022, dated 2024).
Counter-ions that a name gives are not always drawn. Like-named read-outs stand apart in the source and are kept apart here.

Tested on: strain YT
Assay: inhibition of nitrification inhibitors on nitrification activity and growth
Type: cell-based, Mycobacterium sp.
Conditions: for inhibition at 5000 µM: Mycobacterium, read-out: Nitric oxide synthase (nitrification) activity inhibition rate (%); for inhibition at 5000 µM / effect on growth of strain YT / effect on nitrification activity of strain YT / NH4^+-N / NO2^--N / Nitric oxide synthase (nitrification) activity inhibition rate (%): inhibitor 5 mM; for effect on growth of strain YT: pure culture with two nitrogen sources; for effect on nitrification activity of strain YT: pure culture; for inhibition rate on nitrification activity: over the 35 days of culture
Procedure: The nitrogen contents of the two nitrogen sources were equal in a modified Stephenson medium with (NH4)2SO4 as a nitrogen source (NH4)2SO4 content was 2.0g/L) and a modified Stephenson medium with L-arginine hydrochloride (C6H14N4O2•HCl) as a nitrogen source (C6H14N4O2•HCl content was 1.6 g/L).
When sodium pyruvate was added as a carbon source in the design of a culture medium, 1.0M sodium pyruvate solution (the concentration was calculated in terms of pyruvic acid) was prepared firstly, the pH was adjusted to the range of 7.0-7.2, and the solution was sterilized separately for later use. Before use, 1ml of 1.0M sodium pyruvate solution was added to about 100ml of modified Stevenson culture medium with (NH4)2SO4 as a nitrogen source or L-arginine hydrochloride (C6H14N4O2•HCl) as a nitrogen source, and the pyruvic acid concentration of the culture system was designed to be 0.01M.
Four kinds of nitrification inhibitors 4-amino-1,2,4-triazole (ATC), dicyandiamide (DCD, C2H4N4), aminoguanidine hydrochloride (CH6N4•HCl), and guanylthiourea (C2H6N4S) were selected. The four nitrification inhibitors were prepared with a concentration of 500mM, respectively, after the solutions were filtered and sterilized, 1ml of the four nitrification inhibitors with a concentration of 500mM was added into the two medium with different nitrogen sources, such that the corresponding concentration of each of the nitrification inhibitors in the systems was 5 mM.
Two mediums with different nitrogen sources were respectively subjected to 5 treatments, namely without addition of an inhibitor, adding ATC, adding DCD, adding aminoguanidine hydrochloride, and adding guanylthiourea as shown in the table below; the YT system without addition of an inhibitor and the system without inoculation of strain YT and only addition of an inhibitor were respectively used as a control group; 1ml of PBS-YT bacterial liquid was inoculated, and 1ml of sterile water was used as a substitute when the inoculation of a bacterial strain was not performed. The total volume of each culture system was equal, it was about 100 ml.
1.5 Culture conditions: the culture was performed in a shaking table with a rotational speed of 180rpm at 28°C.
1.6 Measurement and calculation of indicator: the growth OD600 and pH value of thallus in the culture solution were measured every week, the contents of NH4^+-N, NO2^--N and NOx^--N were measured, the inhibition effect of the nitric oxide synthase (nitrification) activity of different culture systems were calculated and compared.
Nitric oxide synthase (nitrification) inhibition rate (%) = (NO2^--NYT concentration - NO2^--Nculture system added with an inhibitor concentration) ×100/ NO2^--NYT concentration

[1] = 504 h, strain YT, Ammonium sulfate, Culture 21 days
[2] = 504 h, strain YT, L-arginine hydrochloride, Culture 21 days
[3] = 672 h, strain YT, Ammonium sulfate, Culture 28 days
[4] = 672 h, strain YT, L-arginine hydrochloride, Culture 28 days
[5] = strain YT, Ammonium sulfate, Culture 7 days (Table 13d)
[6] = strain YT, Ammonium sulfate, Culture 14 days (Table 13d)
[7] = strain YT, Ammonium sulfate, Culture 35 days
[8] = strain YT, L-arginine hydrochloride, Culture 14 days (Table 13d)
[9] = strain YT, L-arginine hydrochloride, Culture 35 days
[10] = strain YT, L-arginine hydrochloride as nitrogen source, 7 days
[11] = strain YT, L-arginine hydrochloride as nitrogen source, 14 days
[12] = strain YT, L-arginine hydrochloride as nitrogen source, 21 days
[13] = strain YT, L-arginine hydrochloride as nitrogen source, 28 days
[14] = strain YT, L-arginine hydrochloride as nitrogen source, 35 days
[15] = strain YT, ammonium sulfate as nitrogen source, 7 days
[16] = strain YT, ammonium sulfate as nitrogen source, 14 days
[17] = strain YT, ammonium sulfate as nitrogen source, 21 days
[18] = strain YT, ammonium sulfate as nitrogen source, 28 days
[19] = strain YT, ammonium sulfate as nitrogen source, 35 days

Structure (SMILES)	inhibition at 5000 µM [1]	inhibition at 5000 µM [2]	inhibition at 5000 µM [3]	inhibition at 5000 µM [4]	inhibition at 5000 µM [5]	inhibition at 5000 µM [6]	inhibition at 5000 µM [7]	inhibition at 5000 µM [8]	inhibition at 5000 µM [9]	effect on growth of strain YT	effect on nitrification activity of strain YT	NH4^+-N [10]	NO2^--N [10]	NH4^+-N [11]	NO2^--N [11]	NH4^+-N [12]	NO2^--N [12]	NH4^+-N [13]	NO2^--N [13]	NH4^+-N [14]	further results
N=C(N)NN [Aminoguanidine hydrochloride, aminoguanidine hydrochloride]	99.4%	99.8%	97.2%	99.5%	99.2%	99.7%	98%	99.8%	99.1%	can inhibit the growth	had an inhibitory effect	12.86 mg/L	0 mg/L	38.07 mg/L	0.24 mg/L	100.12 mg/L	0.28 mg/L	145.55 mg/L	0.58 mg/L	58.70 mg/L	NO2^--N [14]: 1.00 mg/L; inhibition rate on nitrification activity (strain YT, L-arginine hydrochloride as nitrogen source): ≥ 99%; NH4^+-N [15]: 418.92 mg/L; NO2^--N [15]: 0 mg/L; NH4^+-N [16]: 419.06 mg/L; NO2^--N [16]: 0.01 mg/L; NH4^+-N [17]: 438.98 mg/L; NO2^--N [17]: 0.03 mg/L; NH4^+-N [18]: 448.65 mg/L; NO2^--N [18]: 0.19 mg/L; NH4^+-N [19]: 468.07 mg/L; NO2^--N [19]: 0.14 mg/L; inhibition rate on nitrification activity (strain YT, ammonium sulfate as nitrogen source): more than 97%
N=C(N)NC(N)=S [Amidinothiourea, guanylthiourea]	59.8%	72.7%	33.5%	77.4%	95.6%	94.8%	11%	98.3%	72%	can obviously inhibit the growth	also exhibited inhibitory effect	8.13 mg/L	0 mg/L	175.90 mg/L	1.72 mg/L	154.73 mg/L	31.10 mg/L	138.43 mg/L	25.70 mg/L	165.02 mg/L	Nitric oxide synthase (nitrification) activity inhibition rate (%) [7]: 11.07%; NO2^--N [14]: 32.26 mg/L; Nitric oxide synthase (nitrification) activity inhibition rate (%) [9]: 71.62%; NH4^+-N [15]: 395.07 mg/L; NO2^--N [15]: 0.02 mg/L; NH4^+-N [16]: 418.86 mg/L; NO2^--N [16]: 0.13 mg/L; NH4^+-N [17]: 407.33 mg/L; NO2^--N [17]: 1.64 mg/L; NH4^+-N [18]: 419.92 mg/L; NO2^--N [18]: 4.57 mg/L; NH4^+-N [19]: 422.98 mg/L; NO2^--N [19]: 6.12 mg/L; inhibition rate on nitric oxide synthase (nitrification) activities (strain YT, two nitrogen sources, before 14 days of culture): ≥ 95%
